Data: patent US12331044B2, “Inhibitors of histone deacetylase useful for the treatment or prevention of HIV infection” (Merck Sharp & Dohme LLC, priority 2018, dated 2025)
Like-named read-outs stand apart in the source and are kept apart here.

Key:
KARN cells (Jurkat 2C4) = test: cells; conditions: Homo sapiens
HDAC6 = HDAC6 (Homo sapiens (Human), UniProt Q9UBN7)
[1] = read-out: Karn EC50 nM 0.1% NHS, 0.1% normal human serum, luciferase induction, 2 μM SAHA = 100%
[2] = read-out: Karn EC50 nM 5% NHS, 5% normal human serum, luciferase induction, 2 μM SAHA = 100%

Chain of HDAC6 (Q9UBN7 whole entry): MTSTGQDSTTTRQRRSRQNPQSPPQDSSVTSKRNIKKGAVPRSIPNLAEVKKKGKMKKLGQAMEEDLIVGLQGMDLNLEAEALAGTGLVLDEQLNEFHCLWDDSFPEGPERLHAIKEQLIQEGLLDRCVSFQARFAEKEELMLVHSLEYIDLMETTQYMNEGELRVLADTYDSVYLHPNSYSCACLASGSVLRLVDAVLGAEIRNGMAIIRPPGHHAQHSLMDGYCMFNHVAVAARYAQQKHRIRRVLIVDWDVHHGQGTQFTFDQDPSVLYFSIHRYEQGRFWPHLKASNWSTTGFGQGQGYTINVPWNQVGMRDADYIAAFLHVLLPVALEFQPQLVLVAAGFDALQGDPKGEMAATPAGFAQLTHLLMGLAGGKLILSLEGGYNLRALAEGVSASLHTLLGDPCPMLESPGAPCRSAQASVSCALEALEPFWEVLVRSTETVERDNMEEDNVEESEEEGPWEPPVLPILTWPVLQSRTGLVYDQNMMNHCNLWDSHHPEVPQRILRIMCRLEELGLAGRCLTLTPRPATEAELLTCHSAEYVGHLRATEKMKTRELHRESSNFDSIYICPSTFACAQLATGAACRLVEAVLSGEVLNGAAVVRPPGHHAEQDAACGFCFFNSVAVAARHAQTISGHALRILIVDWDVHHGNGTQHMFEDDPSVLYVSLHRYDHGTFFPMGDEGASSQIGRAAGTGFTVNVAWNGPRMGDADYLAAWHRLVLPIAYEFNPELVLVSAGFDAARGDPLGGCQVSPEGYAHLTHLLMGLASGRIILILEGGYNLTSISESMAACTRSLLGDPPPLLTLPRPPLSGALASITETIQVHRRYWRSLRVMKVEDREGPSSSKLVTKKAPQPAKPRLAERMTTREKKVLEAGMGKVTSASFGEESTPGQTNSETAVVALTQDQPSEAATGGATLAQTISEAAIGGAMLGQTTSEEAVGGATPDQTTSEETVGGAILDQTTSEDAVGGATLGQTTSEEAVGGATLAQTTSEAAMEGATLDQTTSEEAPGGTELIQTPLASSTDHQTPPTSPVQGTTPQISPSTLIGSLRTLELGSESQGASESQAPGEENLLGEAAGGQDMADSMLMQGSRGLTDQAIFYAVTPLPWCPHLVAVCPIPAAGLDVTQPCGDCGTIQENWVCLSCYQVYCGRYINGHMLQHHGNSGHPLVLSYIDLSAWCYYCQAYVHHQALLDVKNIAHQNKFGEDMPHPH

Row | SMILES | EC50 (KARN cells (Jurkat 2C4); [1]) [nM] | EC50 (KARN cells (Jurkat 2C4); [2]) [nM] | IC50 (HDAC6) [µM]
1 | CN(C)c1ccc2cc(-c3cnc([C@@H](N)CCCCCC(=O)c4ncco4)[nH]3)ccc2n1 [Example 18] | 93 | 130 | > 1.5
2 | CN1CC(C(=O)N[C@@](C)(CCCCCC(=O)c2ccon2)c2ncc(-c3ccccc3F)[nH]2)C1 [Example 184, (S)-N-(2-(5-(2-fluorophenyl)-1H-imidazol-2-yl)-8-(isoxazol-3-yl)-8-oxooctan-2-yl)-1-methylazetidine-3-carboxamide] | 56 | 57 | > 0.9
3 | COc1nc(C)ccc1-c1c[nH]c([C@@H](N)CCCCCC(=O)c2ncco2)n1 [Example 11] | 620 | 670 | 45
4 | COc1cc2nc(C)ccc2cc1-c1c[nH]c([C@@H](N)CCCCCC(=O)c2ncco2)n1 [Example 12, (S)-7-amino-7-(5-(7-methoxy-2-methylquinolin-6-yl)-1H-imidazol-2-yl)-1-(oxazol-2-yl)heptan-1-one] | 66 | 80 | 8.3
5 | CN1CC(C(=O)N[C@@H](CCCCCC(=O)c2ccon2)c2nc(Cl)c(-c3ccc(F)cc3)[nH]2)C1 [Example 196, (S)-N-(1-(4-chloro-5-(4-fluorophenyl)-1H-imidazol-2-yl)-7-(isoxazol-3-yl)-7-oxoheptyl)-1-methylazetidine-3-carboxamide 2,3-dihydroxysuccinate] | 3.8 | 7.5 | 4.6
6 | N[C@@H](CCCCCC(=O)c1ncco1)c1ncc(-c2ccc(-c3cnccn3)cc2)[nH]1 [Example 20] | 450 | 340 | 45
7 | CN1CCC2(CC1)CC(C(=O)N[C@@H](CCCCCC(=O)c1ccon1)c1cc(-c3ccc4nn(C)cc4c3)on1)=NO2 [Example 177, N-{(1S)-7-isoxazol-3-yl-1-[5-(2-methyl-2H-indazol-5-yl)isoxazol-3-yl]-7-oxoheptyl}-8-methyl-1-oxa-2,8-diazaspiro[4.5]dec-2-ene-3-carboxamide] | 33 | 55 | 
8 | COc1nc2ccccc2cc1-c1cnc([C@H](CCCCCC(=O)c2ncco2)NC(=O)C(C)(F)F)[nH]1 [Example 148, 2,2-difluoro-N-[(1S)-1-[5-(2-methoxyquinolin-3-yl)-1H-imidazol-2-yl]-7-(1,3-oxazol-2-yl)-7-oxoheptyl]propanamide] | 54 | 450 | 3.4
9 | N[C@@H](CCCCCC(=O)c1ccon1)c1ccn(-c2ccc(F)cc2)n1 [Example 120, (7S)-7-amino-7-[1-(4-fluorophenyl)-1H-pyrazol-3-yl]-1-isoxazol-3-ylheptan-1-one] |  |  | 45
10 | NC(CCCCCC(=O)c1ccon1)c1cnn(-c2ccc(F)cc2)n1 (centres unmarked) [Example 123, 7-amino-7-[2-(4-fluorophenyl)-2H-1,2,3-triazol-4-yl]-1-isoxazol-3-ylheptan-1-one] |  |  | 45
11 | CN(C)C1(C(=O)N[C@@H](CCCCCC(=O)c2ccon2)c2ncc(-c3ccccc3F)[nH]2)CC1 [Example 62] | 50 | 100 | > 0.9
12 | Cc1ccc2cc(-c3c[nH]c([C@H](CCCCCC(=O)c4ccon4)NC(=O)C4CN(C)C4)n3)ccc2n1 [Example 43] | 8.5 | 14 | 1.8
13 | Cn1cc2cc(-c3cc([C@@H](N)CCCCCC(=O)c4ccon4)no3)ccc2n1 [Example 126, (7S)-7-amino-1-isoxazol-3-yl-7-[5-(2-methyl-2H-indazol-5-yl)isoxazol-3-yl]heptan-1-one] | 170 | 250 | > 0.9
14 | COc1cc2c(ccc(=O)n2C)cc1-c1cnc([C@@H](N)CCCCCC(=O)c2ccon2)[nH]1 [Example 35, (S)-6-(2-(1-amino-7-(isoxazol-3-yl)-7-oxoheptyl)-1H-imidazol-5-yl)-7-methoxy-1-methylquinolin-2(1H)-one] | 72 | 50 | 15
15 | N[C@@H](CCCCCC(=O)c1ncco1)c1ncc(-c2cc(OC(F)(F)F)ccc2F)[nH]1 [Example 142, (7S)-7-amino-7-{5-[2-fluoro-5-(trifluoromethoxy)phenyl]-1H-imidazol-2-yl}-1-(1,3-oxazol-2-yl)heptan-1-one] | 1200 | 270 | > 0.9
16 | O=C(CCCCC[C@H](NC(=O)[C@H]1CC12CCOCC2)c1nc(-c2ccc(F)cc2)c[nH]1)c1ncco1 [Example 5, N-((S)-1-(4-(4-fluorophenyl)-1H-imidazol-2-yl)-7-(oxazol-2-yl)-7-oxoheptyl)-6-oxaspiro[2.5]octane-1-carboxamide] | 63 | 130 | 45
17 | O=C(CCCCC[C@H](NC(=O)c1cncs1)c1nc(-c2ccc(F)cc2)c[nH]1)c1ncco1 [Example 2, (S)-N-(1-(4-(4-fluorophenyl)-1H-imidazol-2-yl)-7-(oxazol-2-yl)-7-oxoheptyl)thiazole-5-carboxamide] | 44 | 97 | 45

Row | SMILES | EC50 (KARN cells (Jurkat 2C4); [1]) [nM] | EC50 (KARN cells (Jurkat 2C4); [2]) [nM] | IC50 (HDAC6) [µM]
18 | N[C@@H](CCCCCC(=O)c1ncco1)c1ncc(-c2cc(OC3CCC3)ccc2F)[nH]1 [Example 130, (7S)-7-amino-7-{5-[5-(cyclobutyloxy)-2-fluorophenyl]-1H-imidazol-2-yl}-1-(1,3-oxazol-2-yl)heptan-1-one] | 1600 | 4600 | > 0.9
19 | CCN1CCC2(CC1)C[C@@H]2C(=O)N[C@@H](CCCCCC(=O)c1ccon1)c1cc(-c2ccccc2F)on1 [Example 175, (1S)-6-ethyl-N-{(1S)-1-[5-(2-fluorophenyl)isoxazol-3-yl]-7-isoxazol-3-yl-7-oxoheptyl}-6-azaspiro[2.5]octane-1-carboxamide] | 13 | 19 | 
20 | CC(C(=O)N[C@@H](CCCCCC(=O)c1ccon1)c1ncc(-c2ccccc2F)[nH]1)N(C)C (some centres unmarked) [Example 61] | 3.6 | 5.8 | > 0.9
21 | Cc1coc(C(=O)CCCCC[C@H](NC(=O)C2CCN(C)CC2)c2nc(-c3ccc(F)cc3)c[nH]2)n1 [Example 8, (S)-N-(1-(4-(4-fluorophenyl)-1H-imidazol-2-yl)-7-(4-methyloxazol-2-yl)-7-oxoheptyl)-1-methylpiperidine-4-carboxamide] |  |  | 15
22 | Cn1c(=O)ccc2cc(-c3c[nH]c([C@@H](N)CCCCCC(=O)c4ccon4)n3)ccc21 [Example 32, (S)-6-(2-(1-amino-7-(isoxazol-3-yl)-7-oxoheptyl)-1H-imidazol-4-yl)-1-methylquinolin-2(1H)-one] | 26 | 35 | 15
23 | CN1CCC(C(=O)N[C@@H](CCCCCC(=O)c2ncco2)c2nc(-c3ccc(F)cc3)c[nH]2)CC1 [Example 3, (S)-N-(1-(4-(4-fluorophenyl)-1H-imidazol-2-yl)-7-(oxazol-2-yl)-7-oxoheptyl)-1-methylpiperidine-4-carboxamide] | 18 | 26 | 45
24 | N#Cc1cnc(-c2cnc([C@@H](N)CCCCCC(=O)c3ncco3)[nH]2)cn1 [Example 132, 5-{2-[(1S)-1-amino-7-(1,3-oxazol-2-yl)-7-oxoheptyl]-1H-imidazol-5-yl}pyrazine-2-carbonitrile] | 25000 | 30000 | 
25 | CN(C)CC(=O)N[C@@H](CCCCCC(=O)c1ccon1)c1nc(-c2ccccc2F)c[nH]1 [Example 47] | 3.7 | 10 | 9.1
26 | N#Cc1cncc(-c2cnc([C@@H](N)CCCCCC(=O)c3ncco3)[nH]2)n1 [Example 133, 6-{2-[(1S)-1-amino-7-(1,3-oxazol-2-yl)-7-oxoheptyl]-1H-imidazol-5-yl}pyrazine-2-carbonitrile] | 23000 | 25000 | 
27 | COc1ncccc1-c1cnc([C@H](CCCCCC(=O)c2ncco2)NC(=O)C2CN(C)C2)o1 (stereo in doubt) [Example 104, N-(1-(5-(2-methoxypyridin-3-yl)oxazol-2-yl)-7-(oxazol-2-yl)-7-oxoheptyl)-1-methylazetidine-3-carboxamide] | 40 | 44 | > 0.9
28 | COc1nc2cnccc2cc1-c1c[nH]c([C@@H](N)CCCCCC(=O)c2ncco2)n1 [Example 13] | 94 | 140 | 45
29 | O=C(N[C@@H](CCCCCC(=O)c1nccs1)c1nc(-c2ccc(F)cc2)c[nH]1)c1cncs1 [Example 7, (S)-N-(1-(4-(4-fluorophenyl)-1H-imidazol-2-yl)-7-oxo-7-(thiazol-2-yl)heptyl)thiazole-5-carboxamide] | 23 | 8400 | 45
30 | CCN1CCC2(CC1)C[C@@H]2C(=O)N[C@@H](CCCCCC(=O)c1ccon1)c1cc(-c2ccc3nn(C)cc3c2)on1 [Example 176, (1S)-6-ethyl-N-{(1S)-7-isoxazol-3-yl-1-[5-(2-methyl-2H-indazol-5-yl)isoxazol-3-yl]-7-oxoheptyl}-6-azaspiro[2.5]octane-1-carboxamide] | 14 | 13 | 
31 | CN(C)CC(=O)N[C@@H](CCCCCC(=O)c1ncco1)c1[nH]c(-c2ccc(F)cc2)nc1Cl [Example 90] | 14 | 34 | 26
32 | COCC(=O)N[C@@H](CCCCCC(=O)c1ncco1)c1ncc(-c2cc3ccccc3nc2OC)[nH]1 [Example 147, 2-methoxy-N-[(1S)-1-[5-(2-methoxyquinolin-3-yl)-1H-imidazol-2-yl]-7-(1,3-oxazol-2-yl)-7-oxoheptyl]acetamide] | 50 | 490 | 15
33 | Cc1cc(C(=O)CCCCC[C@H](NC(=O)C2CN(C)C2)c2nc(-c3ccccc3F)c[nH]2)no1 [Example 59] |  |  | 45
